# Test results as given in US10201547B2, “Method of treatment of aggression” (Supernus Pharmaceuticals, Inc., priority 2008, dated 2019).
# Assays:
# human D5 receptor [1] = molecular target: T1, human D5 receptor (Homo sapiens, UniProt P21918); assay: D5(h) displacement (radioligand binding) assay, [3H]SCH 23390, recombinant D5 receptors in GH4 cell line
# T1 construct: expressed in transfected cells; host or cells: GH4 cell line
# Procedure: A heterologous competition assay was designed for a receptor affinity screening of molindone. Recombinant D5 receptors were expressed in a GH4 cell line and specific binding was characterized by displacement of another molecule with affinity for the D5 receptor (the “ligand”). “Specific binding” refers here to the difference in the binding of the ligand to the receptors in the presence and absence of an excess of the active agent. An initial screen was performed with […] molindone.
# The affinity of molindone for the D5 receptor was further characterized by determining the IC50, or concentration that inhibits 50% of control specific binding. For this experiment, a range of molindone concentrations was selected for the ligand blocking assay. The IC50 was determined using non-linear regression analysis of the competition curves using Hill equation curve fitting. The inhibition constants Ki, wherein Ki is defined as the concentration of the competing ligand (molindone) that will bind to half the binding sites at equilibrium in the absence of radioligand or other competitors, were calculated using Cheng Prusoff equation.
# human D5 receptor [2] = molecular target: T1, human D5 receptor; assay: D5(h) agonist effect, cAMP HTRF; type: cell-based; settings: control 10 μM dopamine
# Source text: (§1) The final step of the assay was to characterize whether the binding is of an agonist or antagonist nature. For the D5 receptor, this was accomplished through an assay that examined the agonist effect on the D5 receptor, i.e., the generation of cAMP or the blockade of this effect when stimulated by a D5 agonist, dopamine. This was also done with a range of concentrations to determine the relative agonist vs antagonist binding Ki. The EC50 values (concentration producing a half-maximal specific response) and IC50 values (a concentration causing a half-maximal inhibition of the control-specific agonist response) were determined by non-linear regression analysis of the concentration-response curves generated with mean replicate values using Hill equation curve fitting. The apparent dissociation constants for antagonists Kb were calculated using the modified Cheng Prusoff equation.
# D4.4 = molecular target: T2, D4.4 (Homo sapiens, UniProt P21917); assay: D4.4 displacement assay; type: binding; settings: concentration 1.0E−05M
# T2 sequence (P21917 1-419): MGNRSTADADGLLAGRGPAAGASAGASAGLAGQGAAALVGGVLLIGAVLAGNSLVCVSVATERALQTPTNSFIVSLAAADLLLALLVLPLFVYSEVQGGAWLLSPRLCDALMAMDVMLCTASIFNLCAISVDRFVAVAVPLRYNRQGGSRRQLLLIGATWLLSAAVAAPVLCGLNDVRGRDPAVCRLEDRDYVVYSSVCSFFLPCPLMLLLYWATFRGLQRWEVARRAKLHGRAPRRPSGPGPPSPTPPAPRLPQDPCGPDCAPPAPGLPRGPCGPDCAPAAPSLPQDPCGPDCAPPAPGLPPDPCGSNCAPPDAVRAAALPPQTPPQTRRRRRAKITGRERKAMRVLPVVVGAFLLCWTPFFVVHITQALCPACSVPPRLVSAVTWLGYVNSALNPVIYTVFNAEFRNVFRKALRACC
# human D5 receptor [3] = molecular target: T1, human D5 receptor; assay: D5(h) antagonist effect, cAMP HTRF; type: cell-based; settings: for Agonist Response % of Control, 1st / Agonist Response % of Control, 2nd / Agonist Response % of Control, Mean: antagonist effect
# Source text: as §1
# [4] = Randomized, multicenter, parallel group dose-ranging study in children with ADHD and persistent serious conduct problems; type: in vivo, human; parameters: NCBRF-TIQ Conduct Problem Subscale Score, Visit 12 Mean / Mean Reduction from Baseline in NCBRF-TIQ Conduct Problem Subscale Score: scale not given here; settings: for NCBRF-TIQ Conduct Problem Subscale Score, Visit 12 Mean: 6 weeks at target dose
# Procedure: Effectiveness, safety and tolerability of molindone was evaluated in a randomized, multicenter, parallel group dose-ranging study in children with ADHD and persistent serious conduct problems. Subjects were randomized based on weight at baseline to 1 of 4 treatment groups. The dosing for subjects with weight of less than 30 kg was initiated at 1.67 mg/day and 3.34 mg/day for subjects weighing 30 kg or more. A titration schedule was followed until the target dose (Treatment group 1, 2, 3 or 4) was reached. Subjects remained at target dose for 6 weeks (Table 9). [table]
# D2S(h) [5] = molecular target: T3, D2S(h) (Homo sapiens, UniProt P14416); assay: D2S(h) displacement (radioligand binding) assay, [3H]spiperone
# D2S(h) [6] = molecular target: T3, D2S(h); assay: D2S(h) antagonist effect, cAMP HTRF; type: cell-based
# [7] = D5(h), test concentration 1.0E−04 M, dopamine 100 nM
# [8] = D5(h), test concentration 1.0E−05 M, dopamine 100 nM
# [9] = D5(h), test concentration 1.0E−06 M, dopamine 100 nM
# [10] = D5(h), test concentration 1.0E−07 M, dopamine 100 nM
# [11] = D5(h), test concentration 2.0E−05 M, dopamine 100 nM
# [12] = D5(h), test concentration 3.0E−06 M, dopamine 100 nM
# [13] = D5(h), test concentration 3.0E−07 M, dopamine 100 nM
# [14] = D5(h), test concentration 5.0E−05 M, dopamine 100 nM
# T1 sequence (P21918 whole entry): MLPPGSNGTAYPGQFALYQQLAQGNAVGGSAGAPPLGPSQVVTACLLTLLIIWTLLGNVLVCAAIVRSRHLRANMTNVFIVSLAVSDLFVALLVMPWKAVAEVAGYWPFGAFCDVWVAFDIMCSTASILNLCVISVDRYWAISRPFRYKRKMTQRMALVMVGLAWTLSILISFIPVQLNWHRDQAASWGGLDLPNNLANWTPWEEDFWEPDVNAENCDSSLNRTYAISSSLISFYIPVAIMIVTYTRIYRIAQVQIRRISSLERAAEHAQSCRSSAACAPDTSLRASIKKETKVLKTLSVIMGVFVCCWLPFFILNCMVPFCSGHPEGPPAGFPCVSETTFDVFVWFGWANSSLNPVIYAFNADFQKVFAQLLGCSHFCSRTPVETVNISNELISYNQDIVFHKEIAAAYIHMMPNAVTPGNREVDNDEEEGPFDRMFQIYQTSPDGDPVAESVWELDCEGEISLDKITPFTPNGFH
# T3 sequence (P14416 1-414 isoform P14416-2): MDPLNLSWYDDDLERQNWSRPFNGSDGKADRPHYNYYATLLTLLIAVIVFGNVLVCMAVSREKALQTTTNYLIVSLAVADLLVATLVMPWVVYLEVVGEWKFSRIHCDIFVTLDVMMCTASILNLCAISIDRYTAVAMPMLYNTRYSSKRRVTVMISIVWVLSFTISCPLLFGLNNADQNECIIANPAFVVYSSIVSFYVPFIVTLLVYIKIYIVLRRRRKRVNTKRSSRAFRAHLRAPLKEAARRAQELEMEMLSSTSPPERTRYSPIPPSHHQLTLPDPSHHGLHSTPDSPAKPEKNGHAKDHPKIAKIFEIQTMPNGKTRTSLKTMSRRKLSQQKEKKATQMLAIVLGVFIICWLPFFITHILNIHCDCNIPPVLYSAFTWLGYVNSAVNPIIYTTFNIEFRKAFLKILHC
smiles,measurement,setting,value
CCc1c(C)[nH]c2c1C(=O)C(CN1CCOCC1)CC2 (stereo not drawn) [molindone],IC50,human D5 receptor [1]; D5 binding,5200 nM
same,n(H),"human D5 receptor [1]; D5 binding, Hill equation curve fitting",1.2
same,Ki,human D5 receptor [1]; D5 receptor,2400 nM
same,inhibition at 10 pM,"human D5 receptor [1]; molindone 10^−5 μM, read-out: inhibition of the SCH23390 binding at the D5 receptor",59%
same,"Agonist Response % of Control, 1st",human D5 receptor [2]; test concentration 1.0E−04 M,1%
same,"Agonist Response % of Control, 2nd",human D5 receptor [2]; test concentration 1.0E−04 M,4%
same,"Agonist Response % of Control, Mean",human D5 receptor [2]; test concentration 1.0E−04 M,2.1%
same,"Agonist Response % of Control, 1st",human D5 receptor [2]; test concentration 1.0E−05 M,−1%
same,"Agonist Response % of Control, 2nd",human D5 receptor [2]; test concentration 1.0E−05 M,2%
same,"Agonist Response % of Control, Mean",human D5 receptor [2]; test concentration 1.0E−05 M,0.6%
same,"Agonist Response % of Control, 1st",human D5 receptor [2]; test concentration 1.0E−06 M,0%
same,"Agonist Response % of Control, 2nd",human D5 receptor [2]; test concentration 1.0E−06 M,0%
same,"Agonist Response % of Control, Mean",human D5 receptor [2]; test concentration 1.0E−06 M,0.1%
same,"Agonist Response % of Control, 1st",human D5 receptor [2]; test concentration 1.0E−07 M,2%
same,"Agonist Response % of Control, 2nd",human D5 receptor [2]; test concentration 1.0E−07 M,2%
same,"Agonist Response % of Control, Mean",human D5 receptor [2]; test concentration 1.0E−07 M,2.1%
same,"Agonist Response % of Control, 1st",human D5 receptor [2]; test concentration 2.0E−05 M,−2%
same,"Agonist Response % of Control, 2nd",human D5 receptor [2]; test concentration 2.0E−05 M,2%
same,"Agonist Response % of Control, Mean",human D5 receptor [2]; test concentration 2.0E−05 M,0.2%
same,"Agonist Response % of Control, 1st",human D5 receptor [2]; test concentration 3.0E−06 M,3%
same,"Agonist Response % of Control, 2nd",human D5 receptor [2]; test concentration 3.0E−06 M,4%
same,"Agonist Response % of Control, Mean",human D5 receptor [2]; test concentration 3.0E−06 M,3.3%
same,"Agonist Response % of Control, 1st",human D5 receptor [2]; test concentration 3.0E−07 M,4%
same,"Agonist Response % of Control, 2nd",human D5 receptor [2]; test concentration 3.0E−07 M,−1%
same,"Agonist Response % of Control, Mean",human D5 receptor [2]; test concentration 3.0E−07 M,1.8%
same,"Agonist Response % of Control, 1st",human D5 receptor [2]; test concentration 5.0E−05 M,1%
same,"Agonist Response % of Control, 2nd",human D5 receptor [2]; test concentration 5.0E−05 M,−2%
same,"Agonist Response % of Control, Mean",human D5 receptor [2]; test concentration 5.0E−05 M,−0.7%
same,% Inhibition of control specific binding,D4.4,38%
same,IC50,"human D5 receptor [3]; D5(h), dopamine 100 nM",5300 nM
same,Kb,"human D5 receptor [3]; D5(h), modified Cheng Prusoff",920 nM
same,nature of the binding/activity at the D5 receptor (agonist or antagonist),"human D5 receptor [3]; D5 receptor, cAMP",specific antagonist activity
same,"Agonist Response % of Control, 1st",human D5 receptor [3]; [7],7%
same,"Agonist Response % of Control, 2nd",human D5 receptor [3]; [7],4%
same,"Agonist Response % of Control, Mean",human D5 receptor [3]; [7],5.6%
same,"Agonist Response % of Control, 1st",human D5 receptor [3]; [8],40%
same,"Agonist Response % of Control, 2nd",human D5 receptor [3]; [8],36%
same,"Agonist Response % of Control, Mean",human D5 receptor [3]; [8],38.4%
same,"Agonist Response % of Control, 1st",human D5 receptor [3]; [9],98%
same,"Agonist Response % of Control, 2nd",human D5 receptor [3]; [9],95%
same,"Agonist Response % of Control, Mean",human D5 receptor [3]; [9],96.4%
same,"Agonist Response % of Control, 1st",human D5 receptor [3]; [10],107%
same,"Agonist Response % of Control, 2nd",human D5 receptor [3]; [10],115%
same,"Agonist Response % of Control, Mean",human D5 receptor [3]; [10],111.0%
same,"Agonist Response % of Control, 1st",human D5 receptor [3]; [11],19%
same,"Agonist Response % of Control, 2nd",human D5 receptor [3]; [11],20%
same,"Agonist Response % of Control, Mean",human D5 receptor [3]; [11],19.6%
same,"Agonist Response % of Control, 1st",human D5 receptor [3]; [12],67%
same,"Agonist Response % of Control, 2nd",human D5 receptor [3]; [12],66%
same,"Agonist Response % of Control, Mean",human D5 receptor [3]; [12],66.7%
same,"Agonist Response % of Control, 1st",human D5 receptor [3]; [13],90%
same,"Agonist Response % of Control, 2nd",human D5 receptor [3]; [13],95%
same,"Agonist Response % of Control, Mean",human D5 receptor [3]; [13],92.9%
same,"Agonist Response % of Control, 1st",human D5 receptor [3]; [14],4%
same,"Agonist Response % of Control, 2nd",human D5 receptor [3]; [14],11%
same,"Agonist Response % of Control, Mean",human D5 receptor [3]; [14],7.3%
same,"NCBRF-TIQ Conduct Problem Subscale Score, Visit 12 Mean","[4]; Treatment 1: 5 mg/day (<30 kg), 10 mg/day (≥30 kg)",13.40
same,Mean Reduction from Baseline in NCBRF-TIQ Conduct Problem Subscale Score,"[4]; Treatment 1: 5 mg/day (<30 kg), 10 mg/day (≥30 kg), baseline mean 20.35",6.95
same,"NCBRF-TIQ Conduct Problem Subscale Score, Visit 12 Mean","[4]; Treatment 2: 10 mg/day (<30 kg), 20 mg/day (≥30 kg)",17.00
same,Mean Reduction from Baseline in NCBRF-TIQ Conduct Problem Subscale Score,"[4]; Treatment 2: 10 mg/day (<30 kg), 20 mg/day (≥30 kg), baseline mean 25.74",8.74
same,"NCBRF-TIQ Conduct Problem Subscale Score, Visit 12 Mean","[4]; Treatment 3: 15 mg/day (<30 kg), 30 mg/day (≥30 kg)",17.79
same,Mean Reduction from Baseline in NCBRF-TIQ Conduct Problem Subscale Score,"[4]; Treatment 3: 15 mg/day (<30 kg), 30 mg/day (≥30 kg), baseline mean 26.00",8.21
same,"NCBRF-TIQ Conduct Problem Subscale Score, Visit 12 Mean","[4]; Treatment 4: 20 mg/day (<30 kg), 40 mg/day (≥30 kg)",11.65
same,Mean Reduction from Baseline in NCBRF-TIQ Conduct Problem Subscale Score,"[4]; Treatment 4: 20 mg/day (<30 kg), 40 mg/day (≥30 kg), baseline mean 25.95",14.30
same,Side effects,[4]; all four treatment groups,"mild, self-limiting and within the limits of tolerability"
same,discontinuation because of side effects,[4]; all four treatment groups,no subjects discontinued the study because of the side effects
same,efficacy signal towards reducing Conduct Problem Subscale scores,[4]; children with ADHD and persistent serious conduct problems,statistically significant efficacy signal
same,Ki,"D2S(h) [5]; D2s binding, Cheng Prusoff, read-out: K1",17 nM
same,n(H),"D2S(h) [5]; D2s binding, Hill equation curve fitting",1.7
same,% Inhibition of control specific binding,"D2S(h) [5]; D2s, concentration 1.0E−05M",98%
same,IC50,D2S(h) [6]; dopamine 30 nM,68 nM
same,Kb,D2S(h) [6]; modified Cheng Prusoff,4.7 nM
